From a melting point compilation (Tetko et al.; mined from patent text by program, amines drawn as free bases though some values may be those of a salt)

melting point [°C]	Structure (SMILES)
57 to 58	Cc1ccccc1COC1(C)COC(CCl)OC1 (stereo not given)
155 to 158	CC(=O)c1ccc(-c2ccc(O)c(F)c2)cc1
224 to 226	COC(=O)c1nc(NC(C)=O)sc1-c1ccccc1
85 to 95	C[C@@H](Oc1ccc2c(c1)N(C)C(=O)N(c1ccc(Cl)cc1)S2(=O)=O)C(=O)O
227	CC(C)NC(=NC(=O)OC(C)(C)C)N=C1NC(=O)C(=O)N1c1ccc(Cl)c(Cl)c1
163	COc1ccc(S(=O)(=O)N(CC(N)=O)c2cc(Cl)c(Cl)cc2Cc2ccccc2Cl)cc1OC
116 to 118	Cn1ncc(C(=O)c2ccc(Cl)cc2Cl)c1OCc1ccc([N+](=O)[O-])cc1
168	CC(=CCP(=O)(O)O)C(N)C(=O)O (stereo not given)
95 to 98	CC(Sc1ccc(Cl)cc1Cl)C(=O)O (racemic)
164	CCO[C@@H]1c2ccc3c(nc(C)n3C)c2O[C@H](c2ccccc2)[C@H]1OC(=O)C(C)(C)C
225 to 228	COC(=O)[C@@H]1CCCCOc2ccc(cc2)C[C@H](NC(=O)OC(C)(C)C)C(=O)N[C@@H](C(C)C)C(=O)N1
136 to 137	Cc1cc(OCc2oc(-c3ccc(C(F)(F)F)cc3)nc2C)ccc1OCC(=O)O
100 to 105	Cc1ccc(S(=O)(=O)OCC2Cc3cccc(-c4cc(C(F)(F)F)cc(C(F)(F)F)c4)c3O2)cc1 (stereo not given)
167 to 172	CSc1ccc2c3c(cccc13)C(=O)N2
86 to 92	C#CCN(Cc1ccc2nc(C)[nH]c(=O)c2c1)c1ccc(C(=O)NCc2cccc([N+](=O)[O-])c2)c(N)c1
182 to 184	O=C(O)c1cccc(NC(=O)C(CSC(=O)c2ccccc2)Cc2ccccc2)c1 (stereo not given)
244 to 245	CN=C(NC#N)C1=CC2(CCCCC2)Oc2ccc([N+](=O)[O-])cc21
154	O=C(c1cc(Cl)ccc1O)c1cc(Cl)ccc1O
149	COc1ccc(C(=O)c2cc(-c3cccnc3)c(N3CCOCC3)s2)cc1
118	Clc1ccc(-c2nc(Cl)nc(Cl)n2)c(Cl)c1
260	FC(F)(F)c1cc(-c2ccc(Cl)c(Cl)c2)nc2c(-c3ccncc3)cnn12
183 to 184	COc1ccc2c(ccn3c(C)nnc23)c1
200 to 201	N=C(Nc1ccc(CNC=Nc2cccs2)cc1)c1cccs1
132 to 133	CCc1scc(C(=O)O)c1N
118 to 119	O=C(Nc1ccc(-n2nc(C(F)(F)F)cc2C(F)(F)F)cc1)c1nc(Cl)ccc1Cl

melting point [°C]	Structure (SMILES)
161 to 162	CC(C)(C)C(=O)OCn1cnc2c(OCc3ccccc3)nc(N)nc21
65 to 67	O=S(=O)(Nc1cccc(CCOCc2ccc(-c3ccc(F)cc3)cc2F)c1)C(F)(F)F
51 to 59	COCCOc1ccc(Nc2nc(Nc3cc4c(cc3OC)CCN(CC(=O)N(C)C)CC4)ncc2Cl)c(OC)c1
165	CCOc1ccc2c(c1)n(C1CCOCC1)c(=O)n2S(=O)(=O)c1ccc(C(=O)OC)cc1OC
147 to 148	COc1ccc(CNC(=O)c2cc([N+](=O)[O-])ccc2N[C@H]2CC[C@@H](OC(C)=O)CC2)cc1OC
67 to 70	CCOC(=O)c1sc2c(Br)cccc2c1C
186 to 188	Cc1c(CC(=O)O)c2cc(OCc3ccc4ccccc4n3)ccc2n1C
195 to 196	Cc1ncn(Cc2ccc(NC(=O)Nc3ccc(Oc4cc(Cl)ncn4)cc3)cc2C(F)(F)F)c1C
40 to 42	C#CCOc1ccccc1-n1cnc2cc(N)ccc21
93 to 94	CCOC(=O)c1ccc2nccn2c1
90 to 92	Cc1c(O[Si](C)(C)C(C)(C)C)cc(O[Si](C)(C)C(C)(C)C)c(C)c1C(=O)OCC(Cl)(Cl)Cl
120 to 121	CCN(CC)C(=O)c1cc[nH]c1C
66 to 70	C[C@H](C(=O)O)c1ccc2cc(OCCCCCCc3cccc(OCc4ccccc4)c3OCc3ccccc3)ccc2c1
242 to 245	COc1cc2nc(N3CCN(c4nc5ccccc5s4)CC3)nc(N)c2cc1OC
230 to 232	CC(C)Cn1cnc2c(N)nc3cccnc3c21
> 250	CC(C)(C)OC(=O)c1ccc(C#Cc2cnc3nc(NC(=O)C(C)(C)C)nc(O)c3c2)cc1
80 to 82	Nc1ccc(SCC2CCCCC2)cc1[N+](=O)[O-]
64 to 66	CCCCCOc1cc(-n2c(=O)cc(C(F)(F)F)n(C)c2=O)c(F)cc1Cl
145 to 147	COc1ccc(S(=O)(=O)N2c3ccccc3-c3ccccc3C2c2ccccc2)cc1 (stereo not given)
135 to 138	COc1ccc2c(-c3ccccc3F)noc2c1I
137	CN1CCN(c2ncc(-c3ccc(Cl)cc3Cl)c(N)n2)CC1
229 to 230	Cc1nnc(-c2ccc3occ(-c4ccc(S(=O)(=O)C(C)C)cc4)c3c2)o1
200 to 202	COc1ccc(C=CC(=O)O)cc1-c1cc2c(cc1OCc1ccccc1)C(C)(C)CCC2(C)C
256	CS(=O)(=O)c1cccc(NC(=O)c2cnn3c(C(F)(F)F)cc(-c4ccc(F)c(F)c4)nc23)c1
141 to 142	O=C(/C=C/c1ccsc1)N1CCOCC1

melting point [°C]	Structure (SMILES)
153 to 155	CC(=O)N1CCc2ccc(/C=C/CCN3CCC(c4ccc(Cl)cc4)CC3)cc2CC1
118	Cc1sc(S(=O)(=O)NC(C)(C)CO)cc1[N+](=O)[O-]
107 to 108	COC(=O)c1csc(-c2ccc(C#N)cc2)n1
177 to 178	CC(C)Cn1c(=O)n(C)c(=O)c2c(Sc3ccc(N)cc3)c(Cc3cccc4ccccc34)sc21
41.4	O=C(CCCI)c1ccc(F)cc1O
211 to 213	CC(C)=NOCc1nc2c(N)nc3cc(Br)ccc3c2s1
44 to 45	CC(N)C(O)(c1ccccc1)c1ccccc1 (stereo not given)
141 to 143	CCc1nc2c(c(C)c(C)n3nnnc23)n1CCOCCN1CCCC1=O
138	COc1ccccc1OCC(O)CN1CCC(N2CCNC2=O)CC1 (stereo not given)
126 to 128	Cn1c(C(F)(F)F)cc(=O)n(-c2cc(OCc3ccccc3F)c(Cl)cc2F)c1=O
167 to 169	CCn1cnc2c(cnc3c2cnn3CC)c1=O
105 to 108	C[C@H](C#Cc1cc(Cc2ccc(F)cc2)cs1)N(O)C(N)=O
197 to 199	CCn1ncc2c(NCC3CCCCC3)c3cc(OCC(O)CO)ccc3nc21 (stereo not given)
211	COc1ccc(Cl)c(Oc2cnc(-c3ncccn3)nc2C=O)c1
214	COc1cc(C(=O)c2nc(N)c3ccccn23)ccc1[N+](=O)[O-]
178 to 181	CCOC(=O)COc1ccc2cc(-c3cc4ccccc4s3)ccc2c1Br
222	CCO[C@@H]1c2ccc3c(nc(C)n3C)c2O[C@H](c2ccccc2)[C@H]1O
135	CCOC(=O)C(C)(C)Oc1ccc(-c2ccc(CCNC(=O)c3ccc(F)cc3)cc2)cc1
133 to 135	O=C(CC(CSC(=O)c1ccccc1)C(=O)O)c1ccc(Br)cc1 (stereo not given)
127 to 129	CCOC(=O)c1sc2cc(Cn3ccnc3)ccc2c1Cl
90 to 92	CCC(CC)C(NS(=O)(=O)c1ccc(Cl)s1)c1ccnn1Cc1ccc(O)cc1 (stereo not given)
53 to 54	Cc1c(C)c2c(c(C)c1N)CC(C)(CN1CCC(OCCCc3ccccc3)CC1)O2 (stereo not given)
138 to 139	CCC(CC)(CC)C(=O)Nc1nn(C)c2c1sc1ncccc12
205 to 206	COc1ccc(-c2nnc3cc(-c4ccccc4)c(OCc4ncn(C)n4)nn23)cc1
180 to 182	CC1=C(/C=C/S(=O)(=O)NC(C)C)C(c2cccc([N+](=O)[O-])c2)C(C(=O)OCC(F)(F)F)=C(C)N1 (stereo not given)

melting point [°C]	Structure (SMILES)
147 to 148	N#CC(=NO)c1cccc(C(=O)c2ccccc2)c1
> 270	O=c1cc(O)c2c([nH]1)CCCCC2
211 to 213	O=C(O)CCCNC(=O)c1ccc(NC(=O)c2ccccc2O)cc1
118	CSC(=S)OCc1cn(-c2ccc(N3CCOCC3)c(F)c2)nn1
226 to 227	COc1cc(Nc2ccccn2)ccc1C(N)=O
148	CN(C)S(=O)(=O)c1cc(-c2csc(=Nc3ccccc3)n2C2CCCCC2)ccc1Cl
185 to 186	CN(C)C=Nc1nc2c(s1)C(=O)C(=CN(C)C)CC2
197 to 198	Cc1nc2c(Cl)nccc2n1C
110 to 114	C=Cc1ccc(OC)c(OC)c1
193 to 196	COc1ccc(C)c(NC(=O)CC2C3CC4CC(C3)CC2C4)c1 (stereo not given)
226	Nc1cc(-c2ccc([N+](=O)[O-])c(N)c2)ccc1[N+](=O)[O-]
110	CCOC(Cc1ccc(OCCN2CCSc3ccccc32)cc1)C(=O)O (single isomer, unassigned; (-))
> 290	COC(=O)C(=O)c1c[nH]c2c1ccc1c3ccccc3[nH]c12
135 to 137	C=C1CSC2C(NC(=O)OC(C)(C)C)C(=O)N2C1C(=O)OC(c1ccccc1)c1ccccc1 (stereo not given)
156 to 158	CN1CCN(C2Cc3ccc(Cl)cc3Sc3cc(F)ccc32)CC1 (stereo not given)
264 to 266	O=c1[nH]c(-c2ccccc2)ncc1[N+](=O)[O-]
177 to 178	Cc1oc(-c2ccccc2)nc1CCOc1ccc(CCC(=O)NC(N)=O)cc1
157 to 158	CCOC(=O)COc1ccc(N)cc1
95 to 97	Cc1cc([N+](=O)[O-])cnc1Oc1ccc(Cl)c(C(F)(F)F)c1
175 to 176	c1ccc2c3c(cnc2c1)OCCN3
82 to 94	CC(C)=C1C(=O)N(c2ccc(Cc3ccc(N)cc3)cc2)C(=O)/C1=C(\C)c1cc(-c2ccccc2)sc1C
83 to 84	CCCCCCc1ccc(O)c(C(=O)O)c1
208 to 213	CC(C)(C)c1cc(NN=Cc2ccc(C(=O)O)cc2)cc(C(C)(C)C)c1

Structure (SMILES)	melting point [°C]
N=C(N)Nc1nc(CCCCNC(N)=N[N+](=O)[O-])cs1	180 to 181
CC(=O)Nc1ccc(SCCN2CC=C(c3ccc(F)cc3)CC2)cc1	150 to 152
